Source: BindingDB's records for doi:10.7270/Q2VX0F3D (Burnham Center For Chemical Genomics, 2012)

Molecular target: T1, Corticotropin-releasing factor-binding protein (Homo sapiens, UniProt P24387)
T1 sequence (P24387 whole entry): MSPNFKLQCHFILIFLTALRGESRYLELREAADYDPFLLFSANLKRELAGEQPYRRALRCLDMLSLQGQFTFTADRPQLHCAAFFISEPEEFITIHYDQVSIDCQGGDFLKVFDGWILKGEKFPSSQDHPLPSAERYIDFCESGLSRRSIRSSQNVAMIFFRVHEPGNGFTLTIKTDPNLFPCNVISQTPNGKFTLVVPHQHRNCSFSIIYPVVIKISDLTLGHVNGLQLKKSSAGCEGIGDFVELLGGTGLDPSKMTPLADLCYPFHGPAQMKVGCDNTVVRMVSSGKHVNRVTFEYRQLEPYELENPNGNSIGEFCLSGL
Assay: activators of CRF receptor 2 with binding protein – uHTS hits, confirmation (AID 602473)

Row | Compound | EC50
1 | Cc1ccc2nc(N3C(=O)C(=O)C(C(=O)c4ccco4)C3c3cccc(O)c3)sc2c1 (configuration not stated) | > 53 µM
2 | N#Cc1cc2ccccc2nc1SCc1cccnc1 [2-(Pyridin-3-ylmethylsulfanyl)-quinoline-3-carbonitrile] | > 53 µM
3 | Cc1cc(C)cc(NC(=O)c2ccc(-n3c(O)c4c(c3O)CCCC4)cc2)c1 [SMR000664971] | > 53 µM
4 | Cc1[nH]c2ccccc2c1/C=C1\N=C(c2ccc(C(F)(F)F)cc2)OC1=O [SMR000152363] | 10.2 µM
5 | Cc1c(N=C2C(=O)N(c3ccccc3Cl)C(=O)C2Cl)c(=O)n(-c2ccccc2)n1C (configuration not stated) | > 53 µM
6 | CCOc1ccc(C2CC(c3ccc(C)cc3)=Nc3nnnn32)cc1 (configuration not stated) | > 53 µM
7 | C=CCOc1ccc(C2C(C(=O)c3ccco3)C(=O)C(=O)N2c2nnc(C)s2)cc1 (configuration not stated) [3-(furan-2-carbonyl)-4-hydroxy-1-(5-methyl-1,3,4-thiadiazol-2-yl)-2-(4-prop-2-enoxyphenyl)-2H-pyrrol-5-one] | > 53 µM
8 | COC(=O)C1=Nc2nnnn2C(c2ccc(O)c(OC)c2)C1C(=O)c1ccccc1 (configuration not stated) [SMR000020111] | > 53 µM
9 | N#CC1C(=N)OC2=C(C(=O)CC(c3ccccc3)C2)C1c1ccc2c(c1)OCO2 (configuration not stated) | > 53 µM
10 | Cc1cc(C)n(CCC(=O)NNC2=c3cc(Br)ccc3=NC2=O)n1 [MLS000777238] | > 53 µM
11 | CN(C)c1ccc(C(N=O)c2ccccc2)cc1 (configuration not stated) [[4-(dimethylamino)phenyl]-phenylmethanone oxime] | > 53 µM
12 | CCNC(=S)N(CCc1ccc(S(N)(=O)=O)cc1)c1cc(O)n(-c2ccccc2)c1O [1-(2,5-dioxo-1-phenyl-3-pyrrolidinyl)-3-ethyl-1-[2-(4-sulfamoylphenyl)ethyl]thiourea] | 18.5 µM
13 | Cc1ccccc1COc1ccc(C(=O)C2C(=O)C(=O)N(CCCn3ccnc3)C2c2ccco2)cc1 (configuration not stated) | > 53 µM
14 | CSc1nnc(C)c(CC=Nc2ccc(C)cc2)n1 [MLS000326071] | 14.9 µM
15 | COc1ccc(C(=O)Cc2nc3ccccc3n(-c3ccccc3)c2=O)cc1 [(3Z)-3-[2-(4-methoxyphenyl)-2-oxidanylidene-ethylidene]-1-phenyl-4H-quinoxalin-2-one] | 7.85 µM
16 | CC1(C)CC(=O)C(=CNc2ccc(C(=O)c3ccccc3)cc2NC=C2C(=O)CC(C)(C)CC2=O)C(=O)C1 [MLS000724193] | > 53 µM
17 | O=C(O)c1ccc(CN=Nc2cccc(C(F)(F)F)c2)cc1 | > 53 µM
18 | CCCCCCc1cc2cc(C(=O)NCc3ccccc3)c(N)oc-2cc1=O [2-amino-6-hexyl-7-oxo-N-(phenylmethyl)-1-benzopyran-3-carboxamide] | 4.2 µM
19 | CC(=CN=Nc1nc(C)cc(C)n1)Cc1ccc(C(C)C)cc1 [SMR000146220] | > 53 µM

Row | Compound | EC50
20 | Cn1c(O)c(N=Nc2ccc([N+](=O)[O-])cc2)sc1=S [MLS002608645] | 1.69 µM
21 | COc1ccc(C(=O)C2C(=O)C(=O)N(CCN(C)C)C2c2cccnc2)cc1C (configuration not stated) [SMR000287983] | > 53 µM
22 | CSCSC1=NC(C)=C(C(C)=O)C(c2ccccc2Cl)C1C#N (configuration not stated) [4-(2-chlorophenyl)-5-ethanoyl-6-methyl-2-(methylsulfanylmethylsulfanyl)-1,4-dihydropyridine-3-carbonitrile] | > 53 µM
23 | N#CC(C(=O)Cc1cccc2ccccc12)c1nc2ccccc2s1 (configuration not stated) [(2Z)-2-(3H-1,3-benzothiazol-2-ylidene)-4-naphthalen-1-yl-3-oxobutanenitrile] | 3.14 µM
24 | N#CC(C(=O)COC(=O)c1ccccc1O)c1nc2ccccc2s1 (configuration not stated) [[(3Z)-3-(3H-1,3-benzothiazol-2-ylidene)-3-cyano-2-oxidanylidene-propyl] 2-oxidanylbenzoate] | > 53 µM
25 | COc1cc(C2C(C(=O)c3ccco3)C(=O)C(=O)N2c2cc(C)on2)cc(Br)c1O (configuration not stated) [2-(3-bromanyl-5-methoxy-4-oxidanyl-phenyl)-3-(furan-2-ylcarbonyl)-1-(5-methyl-1,2-oxazol-3-yl)-4-oxidanyl-2H-pyrrol-5-one] | > 53 µM
26 | CC1=NC(=O)NC(c2cccc3ccccc23)C1C(=O)OC(C)(C)C (configuration not stated) [SMR000543036] | > 53 µM
27 | Cc1cc2c(cc1Br)=NC(=O)C=2NNC(=O)C1CC1c1ccccc1 (configuration not stated) [N'-(6-bromo-5-methyl-2-oxo-3-indolyl)-2-phenyl-1-cyclopropanecarbohydrazide] | > 53 µM
28 | CC(=O)C1C(=O)C(=O)N(Cc2ccccc2)C1c1ccc(F)cc1 (configuration not stated) [3-ethanoyl-2-(4-fluorophenyl)-4-oxidanyl-1-(phenylmethyl)-2H-pyrrol-5-one] | > 53 µM
29 | COc1ccccc1C1C(C(=O)c2sc(C)nc2C)C(=O)C(=O)N1CCN1CCOCC1 (configuration not stated) [3-(2,4-dimethyl-1,3-thiazole-5-carbonyl)-4-hydroxy-2-(2-methoxyphenyl)-1-(2-morpholin-4-ylethyl)-2H-pyrrol-5-one] | > 53 µM
30 | C=CCOC(=O)C1C(C)=NC2(O)c3ccccc3C(=O)C12O (configuration not stated) [MLS000068305] | > 53 µM
31 | Cc1ccc(-n2[nH]c(C)c(CN=Nc3ccc([N+](=O)[O-])cc3[N+](=O)[O-])c2=O)cc1 [SMR000171521] | > 53 µM
32 | N#CC(C(=O)COc1ccc(Cl)cc1)c1nc2ccccc2s1 (configuration not stated) | > 53 µM
33 | Cc1cccc(N2C(=O)C(=O)C(C(=O)c3cccs3)C2c2ccc(C(C)C)cc2)n1 (configuration not stated) [3-Hydroxy-5-(4-isopropyl-phenyl)-1-(6-methyl-pyridin-2-yl)-4-(thiophene-2-carbonyl)-1,5-dihydro-pyrrol-2-one] | 11.3 µM
34 | CCOC(=O)c1c(NC=C2C(=O)NC(=S)NC2=O)sc2c1CCC2 [ethyl 2-[(E)-(4,6-dioxo-2-sulfanylidene-1,3-diazinan-5-yl)methylideneamino]-5,6-dihydro-4H-cyclopenta[b]thiophene-3-carboxylate] | > 53 µM
35 | CC(=O)C1C(C)=NC(=S)NC1c1cc([N+](=O)[O-])ccc1O (configuration not stated) [MLS000777581] | > 53 µM
36 | Cc1noc(NS(=O)(=O)c2ccc(N=CCC(=O)c3cccc4ccccc34)cc2)c1C [N-(3,4-dimethyl-1,2-oxazol-5-yl)-4-[[(Z)-3-naphthalen-1-yl-3-oxidanylidene-prop-1-enyl]amino]benzenesulfonamide] | > 53 µM
37 | O=C(Cc1nc2ccccc2n(-c2ccccc2)c1=O)c1ccc(F)cc1 [3-[2-(4-fluorophenyl)-2-oxoethylidene]-1-phenyl-3,4-dihydro-2(1H)-quinoxalinone] | 7.18 µM
